Where a name gives a salt, the structure may show the parent alone. Read-outs that look alike come from different tables or passages of the source.
What was measured:
[1] = Solubility in mixtures of water-ethanol at 25°C and 40°C; type: physicochemical
[2] = Hygroscopicity by DVS analysis; type: physicochemical; conditions: 25°C
Procedure: The hygroscopicity of both crystalline Forms (I) and (II) was measured with DVS analysis by means of a water absorption analyzer (SURFACE MEASUREMENT SYSTEM, Marion, Buckinghamshire, UK) according to the following working conditions: […]

[3] = Bioavailability of crystalline Forms (I) and (II) in dogs; type: in vivo, Beagle dogs; conditions: for AUC0-t / Cmax / concentration in plasma of lercanidipine (S+R): oral 3 mg/kg
Procedure: A study was carried out on six Beagle dogs to evaluate the bioavailability of crystalline Forms (I) and (II).
Blood samples were taken at given times and plasma concentrations of lercanidipine were determined with a stereoselective analytical method HPLC-MS/MS, according to the following working conditions;
Lercanidipine was extracted from dog plasma by means of a liquid-liquid extraction with a mixture of n-hexane and ethyl ether. The dry residue of the organic phase was taken up with a mixture of methanol and water and a liquid-phase chromatographic separation (LC) was carried out; the two enantiomers of lercanidipine were separated on a CHIROBIOTIC V column (Vancomycin) (particle size […], column size 150 x 4.6 mm (ASTEC, NJ, USA)) and were detected with a mass spectrometer (MS/MS) by using an electrospray technique.
The analytical method was validated in a concentration range between 0.1 and 20 ng/ml of plasma for both enantiomers. The method has shown to be specific with an accuracy of 15%. The average concentrations of lercanidipine in the tables represent the sum of both enantiomers.

[4] = Relative bioavailability of Form (I) and Form (II) in man; type: in vivo; conditions: 10 mg tablet
Procedure: Blood samples were taken at 15 points from time 0 to 24 h post-dosing and plasma concentrations of lercanidipine were determined with a stereoselective analytical method HPLC-MS/MS.

In the case of `COC(=O)C1=C(C)NC(C)=C(C(=O)OC(C)(C)CN(C)CCC(c2ccccc2)c2ccccc2)C1c1cccc([N+](=O)[O-])c1` (single isomer, unassigned) [Form (I), lercanidipine hydrochloride], the “solubility compared with Form (II)” value ([1]; 25°C and 40°C) is reported as “higher than that of crystalline Form (II)”, the “water concentration at which the maximum solubility is reached” value ([1]; at both 25°C and 40°C) is reported as 20% and the mass change ([2]; at 0% RH) is reported as -0.3%. The mass change ([2]; at 95% RH) was “+0.15%”, the AUC0-t ([3]; Dog 1, hydrochloride, 3 mg/kg) was 15.41 ng/h/mL and the Cmax ([3]; Dog 1, hydrochloride, 3 mg/kg) was 8.29 ng/mL. The Cmax ([3]; Dog 2 (not included in mean), hydrochloride, 3 mg/kg) was 128.87 ng/mL, the AUC0-t ([3]; Dog 3, hydrochloride, 3 mg/kg) was 27.544 ng/h/mL and the Cmax ([3]; Dog 3, hydrochloride, 3 mg/kg) was 11.62 ng/mL. For the same molecule, the AUC0-t ([3]; Dog 4, hydrochloride, 3 mg/kg) was 46.57 ng/h/mL, the Cmax ([3]; Dog 4, hydrochloride, 3 mg/kg) was 27.17 ng/mL and the AUC0-t ([3]; Dog 5, hydrochloride, 3 mg/kg) was 70.39 ng/h/mL. The Cmax ([3]; Dog 5, hydrochloride, 3 mg/kg) was 22.58 ng/mL, the AUC0-t ([3]; Dog 6, hydrochloride, 3 mg/kg) was 28.72 ng/h/mL and the Cmax ([3]; Dog 6, hydrochloride, 3 mg/kg) was 17.83 ng/mL. The Cmax ([3]; Mean (n=5, Dog 2 not included), hydrochloride, 3 mg/kg) was 17.50 ng/mL, the “concentration in plasma of lercanidipine (S+R)” value (“concentration in plasma” for short) ([3]; Time 0 h, Dog 1) was 0.00 ng/mL and the “concentration in plasma” value ([3]; Time 0 h, Dog 2 (not included in mean)) was 0.00 ng/mL. The “concentration in plasma” value ([3]; Time 0 h, Dog 3) was 0.00 ng/mL, the “concentration in plasma” value ([3]; Time 0 h, Dog 4) was 0.00 ng/mL and the “concentration in plasma” value ([3]; Time 0 h, Dog 5) was 0.00 ng/mL. The “concentration in plasma” value ([3]; Time 0 h, Dog 6) was 0.00 ng/mL, the “concentration in plasma” value ([3]; Time 0 h, Mean (Dog 2 not included)) was 0.00 ng/mL and the “concentration in plasma” value ([3]; Time 0.5 h, Dog 2 (not included in mean), hydrochloride, 3 mg/kg, 30 min) was 0.20 ng/mL. The “concentration in plasma” value ([3]; Time 0.5 h, Dog 3, hydrochloride, 3 mg/kg) was 0.00 ng/mL, the “concentration in plasma” value ([3]; Time 0.5 h, Dog 4) was 0.00 ng/mL and the “concentration in plasma” value ([3]; Time 0.5 h, Dog 5) was 0.00 ng/mL. For the same molecule, the “concentration in plasma” value ([3]; Time 0.5 h, Dog 6) was 0.00 ng/mL, the “concentration in plasma” value ([3]; Time 0.5 h, Mean (Dog 2 not included), hydrochloride, 3 mg/kg) was 0.00 ng/mL and the “concentration in plasma” value ([3]; Time 1 h, Dog 2 (not included in mean), hydrochloride, 3 mg/kg, 60 min) was 0.29 ng/mL. The “concentration in plasma” value ([3]; Time 1 h, Dog 3, hydrochloride, 3 mg/kg) was 0.00 ng/mL, the “concentration in plasma” value ([3]; Time 1 h, Dog 4, hydrochloride, 3 mg/kg) was 0.00 ng/mL and the “concentration in plasma” value ([3]; Time 1 h, Dog 5, hydrochloride, 3 mg/kg) was 0.00 ng/mL. The “concentration in plasma” value ([3]; Time 1 h, Dog 6) was 0.00 ng/mL, the “concentration in plasma” value ([3]; Time 1 h, Mean (Dog 2 not included), hydrochloride, 3 mg/kg, 60 min) was 0.12 ng/mL and the “concentration in plasma” value ([3]; Time 1.5 h, Dog 1, hydrochloride, 3 mg/kg, 90 min) was 1.83 ng/mL. The “concentration in plasma” value ([3]; Time 1.5 h, Dog 2 (not included in mean), hydrochloride, 3 mg/kg, 90 min) was 1.06 ng/mL, the “concentration in plasma” value ([3]; Time 1.5 h, Dog 3, hydrochloride, 3 mg/kg, 90 min) was 0.32 ng/mL and the “concentration in plasma” value ([3]; Time 1.5 h, Dog 4, hydrochloride, 3 mg/kg) was 0.00 ng/mL. For the same molecule, the “concentration in plasma” value ([3]; Time 1.5 h, Dog 5, hydrochloride, 3 mg/kg, 90 min) was 1.33 ng/mL, the “concentration in plasma” value ([3]; Time 1.5 h, Dog 6, hydrochloride, 3 mg/kg) was 0.00 ng/mL and the “concentration in plasma” value ([3]; Time 1.5 h, Mean (Dog 2 not included), hydrochloride, 3 mg/kg, 90 min) was 0.70 ng/mL. For the same molecule, the “concentration in plasma” value ([3]; Time 2 h, Dog 1, hydrochloride, 3 mg/kg, 120 min) was 8.29 ng/mL, the “concentration in plasma” value ([3]; Time 2 h, Dog 2 (not included in mean), hydrochloride, 3 mg/kg, 120 min) was 8.94 ng/mL and the “concentration in plasma” value ([3]; Time 2 h, Dog 3, hydrochloride, 3 mg/kg, 120 min) was 0.94 ng/mL. The “concentration in plasma” value ([3]; Time 2 h, Dog 4, hydrochloride, 3 mg/kg, 120 min) was 0.35 ng/mL, the “concentration in plasma” value ([3]; Time 2 h, Dog 5, hydrochloride, 3 mg/kg, 120 min) was 17.11 ng/mL and the “concentration in plasma” value ([3]; Time 2 h, Dog 6, hydrochloride, 3 mg/kg, 120 min) was 0.28 ng/mL. The “concentration in plasma” value ([3]; Time 2 h, Mean (Dog 2 not included), hydrochloride, 3 mg/kg, 120 min) was 5.39 ng/mL, the “concentration in plasma” value ([3]; Time 3 h, Dog 1, hydrochloride, 3 mg/kg, 180 min) was 4.44 ng/mL and the “concentration in plasma” value ([3]; Time 3 h, Dog 2 (not included in mean), hydrochloride, 3 mg/kg, 180 min) was 36.39 ng/mL. For the same molecule, the “concentration in plasma” value ([3]; Time 3 h, Dog 3, hydrochloride, 3 mg/kg, 180 min) was 0.92 ng/mL, the “concentration in plasma” value ([3]; Time 3 h, Dog 4, hydrochloride, 3 mg/kg, 180 min) was 27.17 ng/mL and the “concentration in plasma” value ([3]; Time 3 h, Dog 5, hydrochloride, 3 mg/kg, 180 min) was 22.58 ng/mL. The “concentration in plasma” value ([3]; Time 3 h, Dog 6, hydrochloride, 3 mg/kg, 180 min) was 1.29 ng/mL, the “concentration in plasma” value ([3]; Time 3 h, Mean (Dog 2 not included), hydrochloride, 3 mg/kg, 180 min) was 11.28 ng/mL and the “concentration in plasma” value ([3]; Time 4 h, Dog 1, hydrochloride, 3 mg/kg, 240 min) was 1.81 ng/mL. For the same molecule, the “concentration in plasma” value ([3]; Time 4 h, Dog 2 (not included in mean), hydrochloride, 3 mg/kg, 240 min) was 128.87 ng/mL, the “concentration in plasma” value ([3]; Time 4 h, Dog 3, hydrochloride, 3 mg/kg, 240 min) was 9.42 ng/mL and the “concentration in plasma” value ([3]; Time 4 h, Dog 4, hydrochloride, 3 mg/kg, 240 min) was 11.07 ng/mL. The “concentration in plasma” value ([3]; Time 4 h, Dog 5, hydrochloride, 3 mg/kg, 240 min) was 16.39 ng/mL, the “concentration in plasma” value ([3]; Time 4 h, Dog 6, hydrochloride, 3 mg/kg, 240 min) was 6.26 ng/mL and the “concentration in plasma” value ([3]; Time 4 h, Mean (Dog 2 not included), hydrochloride, 3 mg/kg, 240 min) was 8.99 ng/mL. For the same molecule, the “concentration in plasma” value ([3]; Time 6 h, Dog 1, hydrochloride, 3 mg/kg, 360 min) was 0.80 ng/mL, the “concentration in plasma” value ([3]; Time 6 h, Dog 2 (not included in mean), hydrochloride, 3 mg/kg, 360 min) was 26.65 ng/mL and the “concentration in plasma” value ([3]; Time 6 h, Dog 3, hydrochloride, 3 mg/kg, 360 min) was 11.62 ng/mL. For the same molecule, the “concentration in plasma” value ([3]; Time 6 h, Dog 4, hydrochloride, 3 mg/kg, 360 min) was 2.53 ng/mL, the Tmax ([3]; dog, plasma, po, 3 mg/kg, Dog 1, read-out: Tmax) was 2 h and the Tmax ([3]; dog, plasma, po, 3 mg/kg, Dog 4, read-out: Tmax) was 3 h. It also gave a Tmax ([3]; dog, plasma, po, 3 mg/kg, Dog 5, read-out: Tmax) of 3 h, a Tmax ([3]; dog, plasma, po, 3 mg/kg, Dog 6, read-out: Tmax) of 6 h and a Tmax ([3]; dog, plasma, po, 3 mg/kg, Mean (n=5, Dog 2 not included), read-out: Tmax) of 4 h. It also gave a concentration at 0.5 h ([3]; dog, plasma, po, 3 mg/kg, Time 0.5 h, Dog 1, read-out: concentration in plasma of lercanidipine (S+R)) of 0.1 ng/mL, a concentration at 1 h ([3]; dog, plasma, po, 3 mg/kg, Time 1 h, Dog 1, read-out: concentration in plasma of lercanidipine (S+R)) of 0.59 ng/mL and a concentration at 6 h ([3]; dog, plasma, po, 3 mg/kg, Time 6 h (last sampling time), Mean (Dog 2 not included), read-out: concentration in plasma of lercanidipine (S+R)) of 8.5 ± 6.5 ng/mL. For the same molecule, the concentration at 6 h ([3]; dog, plasma, po, 3 mg/kg, Time 6 h, Dog 5, read-out: concentration in plasma of lercanidipine (S+R)) was 9.73 ng/mL, the concentration at 6 h ([3]; dog, plasma, po, 3 mg/kg, Time 6 h, Dog 6, read-out: concentration in plasma of lercanidipine (S+R)) was 17.8 ng/mL and the “tmax compared with Form (II)” value [4] was “shorter than that of Form (II)”. The AUC(0-t) at 24 h ([4]; human, plasma, po, 10 mg, single dose, geom. least square mean) was 8.82 ng·h/mL, the Cmax ([4]; human, plasma, po, 10 mg, single dose, geom. least square mean, read-out: Cmax) was 3.18 ng/mL and the Tmax ([4]; human, plasma, po, 10 mg, single dose, median, read-out: tmax) was 1.5 h.

— patent EP1432683B9 (Recordati Ireland Limited, priority 2001, dated 2003)
